# Source: patent US12304894B2, “Derivatives of adamantyl oxadiazoles and pharmaceutically acceptable solvates, hydrates and salts thereof, pharmaceutical composition comprising same, synthesis method, suitable for use as effective and selective inhibitors of the reductase activity of the enzyme 11-beta dehydrogenase type 1 …” (PONTIFICIA UNIVERSIDAD CATOLICA DE CHILE, priority 2019, dated 2025)
# Columns and labels:
# [1] = In vivo pharmacokinetics in mice, IV and oral; parameters: species or system male C57BL/6J mice
# Protocol: The animals were classified according to weight and divided into the following groups (Table 7):
# 20% Kolliphor and 50% PBS at a concentration of 1 mg/mL. From this solution, a 0.4 mg/mL dilution was made for IV administration.
# In intravenous (IV) administration, after each compound was administered to the mice, the mice were separated into groups of 3 and were euthanized at times 5, 10, 15, 30, 60, 120, 240, 260, 480 and 1440 minutes. For oral administration (V.O), the mice were separated into groups of 3 and were euthanized at times 15, 30, 60, 120, 240, 260, 480 and 1440 minutes. To obtain zero-time assays, mice were used to which no compound was administered.
# Whole blood was obtained from each animal (in microtubes with EDTA); these samples were centrifuged at 9000 g at a temperature of 4° C. for a period of 5 minutes, obtaining the plasma which was stored at −80° C.
# In addition, organs such as brain, liver, muscle, epididymal fat, heart and kidney were obtained from the animals, which were frozen in liquid nitrogen and stored at −80° C.
# Plasma samples and brain, liver, epididymal fat, and muscle (tissue) samples were analyzed. 2× in volume of water (weight/volume) was added to the tissue samples while 4× in volume of water (weight/volume) was added to the muscle mixture, after which they were homogenized using a Bullet Blender equipment (Next Advance, USA).
# All samples were analyzed as a single point by LC-MS/MS in accordance with the analytical methodology already standardized and presented in application example 3.
# To begin, a calibration curve was run. For this purpose, the controls, the plasma and organ samples were prepared by adding 180 μL of cold acetonitrile to these, then vortexed for 15 seconds and centrifuged at 6100 g for 30 seconds at 4° C. The supernatant which was obtained from this procedure was diluted in 2 volumes of 0.2% formic acid in water and transferred to a vial that will allow it to be injected into LC-MS/MS.
# The conditions for the LC-MS/MS analysis were: • HPLC: Eksigent UltraLC 100 • Autosampler: Eksigent UltraLC 100-XL at RT • Mobile phase: A-0.1% formic acid in water; B-0.1% formic acid in acetonitrile. • Column: YMC Triart 1.9 μm; 2.0×50 mm • Injection volume: 2 μL • Gradient: 5% B for 0.25 min→5-95% B for 0.75 min→95% B for 2 min→95-5% B for 0.25 min→5% B for 0.25 min • Flow: 0.6 mL/min • Mass Spectrometer: Applied Biosystems/SCIEX QTRAP 4500 • Interface: TurbolonSpray (ESI) at 600° C. • Software: Analyst.
# plasma proteins = test: Plasma protein binding (Transil XL PPB Binding Kit); type: in vitro ADME
# Description: To carry out this study, the commercial Transil XL PPB Binding Kit, v2, Sovicell was used, following the manufacturer's recommendations.
# [2] = test system: Madin-Darby Canine Kidney (MDCK) cells transfected with human P-glycoprotein (hMDR1); settings: MDCK-MDR1
# Protocol: Madin-Darby Canine Kidney (MDCK) cells were used in this assay, which are stably transfected with the gene encoding human P-glycoprotein (hMDR1). These cells were cultured in DMEM medium (Dulbecco's Modified Eagle's Medium) high in glucose and supplemented with 10% fetal bovine serum, 1% 5 mM pyruvate, 1% non-essential amino acids solution X5, 20,000 IU/mL of penicillin G and 20,000 IU/mL of streptomycin, a temperature of 37° C., 90% relative humidity and 5% CO2. These cells were seeded in sterile plates on the fourth day of growth or until reaching 90% confluence.
# Ten days before carrying out the transport analysis, cells were seeded in Transwells® inserts (1.12 cm2) at a density of 60,000 cells/cm^2. The monolayers were supplemented every two days with fresh culture medium. […] In parallel, B-A experiments were performed (1.5 mL of donor solution in basolateral compartment and 0.5 mL buffer in apical). The monolayers were incubated while stirring (50 rpm) at a temperature of 37° C. for a period of 2 hours. Additionally, this assay was performed in the presence of the Pgp inhibitor elacridar (5 μM). After the stir time, the inserts were removed, the compartments were sampled and the cells were transferred to HPLC vials by diluting these samples with mobile phase chromatography. These samples were kept at −20° C. until their analysis time. […]
# 11β-HSD2 = 11β-HSD2 oxidase activity in human hepatic microsomes (HTRF Cortisol Kit); type: biochemical; settings: remaining activity at 100 nM compound
# Protocol: Determination of 11β-HSD2 Oxidase Activity
# The concentration of cortisone produced in the reaction, with and without the compounds, was determined using the Cortisol Kit (Cisbio) product in order to evaluate the 11β-HSD2 oxidase activity.
# As in the previous assays, the compounds are reconstituted in DMSO to 10 mM stock, in order to subsequently make serial dilutions to determine the efficacy curve.
# To perform the assay, the HTRF plate was prepared containing Tris buffer, 100 nM cortisol and 200 μM NAD^+. Enzyme is added to the corresponding wells in a 4:1 ratio, respectively, and incubated for 2 hours at 37° C. For the kit control, two wells are added only with Tris buffer.
# After the incubation time, the reagents of the Cortisol kit, Cortisol d2 and Cortisol cryptate, in a sample ratio, Cortisol d2 and cortisol cryptate 2:1:1 are added. For the negative control, cortisol d2 was replaced in some wells by the kit's reconstitution buffer. The plate was incubated for 1 hour at room temperature to later read at 665 and 620 nm.
# For this purpose, the reaction buffer was prepared and subsequently, in a plate for HTRF, the reaction buffer, the microsomes in a concentration of 5 mg/mL and the compound in a ratio of 3:1:1, respectively, were added to each well. In the case of reaction controls, the reaction buffer without cortisol and without compound is included for the negative control. For the positive control, no compound is added, and for the kit controls, only the reaction buffer is added to the negative and positive control wells.
# After incubating the plate for 2 hours, the reagents of the cortisol kit, cortisol d2 and cortisol cryptate, are added to the corresponding wells as indicated above. They are then incubated at room temperature for 1 hour to finally read the 665 and 620 nm fluorescence.
structure (smiles),measurement,setting,value
"Cc1cccc(CCc2nc(C34CC5CC(CC(C5)C3)C4)no2)c1 [BD-40, 1-(3-methylphenyl)-2-(3-adamantyl-1,2,4-oxadiazol-5-yl)ethane]",AUCExtr,"[1]; IV, 2 mg/Kg, plasma",5.240%
same,AUCInf,"[1]; IV, 2 mg/Kg, plasma",623 ng·h/mL
same,AUCfinal,"[1]; IV, 2 mg/Kg, plasma",649 ng·h/mL
same,C0/Cmax,"[1]; IV, 2 mg/Kg, plasma",2200 ng/mL
same,CL,"[1]; IV, 2 mg/Kg, plasma",53.5 mL/min/kg
same,MRTInf,"[1]; IV, 2 mg/Kg, plasma",87.6 min
same,Vz,"[1]; IV, 2 mg/Kg, plasma",15.30 L/kg
same,t1/2,"[1]; IV, 2 mg/Kg, plasma",198 min
same,AUCExtr,"[1]; PO, dose 3 mg/Kg, plasma",3.6%
same,AUCInf,"[1]; PO, dose 3 mg/Kg, plasma",596 ng·h/mL
same,AUCfinal,"[1]; PO, dose 3 mg/Kg, plasma",575 ng·h/mL
same,C0/Cmax,"[1]; PO, dose 3 mg/Kg, plasma",393 ng/mL
same,CL,"[1]; PO, dose 3 mg/Kg, plasma",280 mL/min/kg
same,F,"[1]; PO, dose 3 mg/Kg, plasma",19.1%
same,Vz,"[1]; PO, dose 3 mg/Kg, plasma",168 L/kg
same,t1/2,"[1]; PO, dose 3 mg/Kg, plasma",32.3 min
same,tmax,"[1]; PO, dose 3 mg/Kg, plasma",30 min
same,mean time (of elimination) of the drug,"[1]; administered intravenously, plasma",3.30 h
same,mean time (of elimination) of the drug,"[1]; administered orally, plasma",0.864 h
same,"detection in tissues (brain, liver, fat, muscle)",[1]; oral and intravenous administration,can be detected in the different tissues
same,bioavailability / apparent availability,[1]; plasma,good bioavailability
same,plasma protein binding,plasma proteins,98.3±1.9%
same,Papp compared with high permeability marker minoxidil,[2],higher than those of the high permeability marker minoxidil
same,11b-HSD2 oxidase (activ rem %) Microcosms 100 nM,11β-HSD2,97.9%
